Assays:
Format in all cases: binding
[1] = target: T1, transferrin iron complex (holo-Transferrin (hTf), human) (Homo sapiens, UniProt P02787); experiment: Evaluation D: capture of iron ions from transferrin iron complex; conditions: for hTf residual ratio (%): relative to non-treated holo-Transferrin, 24 hours with 5 mM chelator solution; for Absorbance (466 nm): transferrin fraction after 24 hours at room temperature with 5 mM chelator solution and 50 μM transferrin iron complex solution, ultrafiltration
T1 construct: purchased Sigma Corporation T0665-50MG
Experimental: Evaluation was carried out by the following evaluation method D with respect to properties whether iron ions were captured from the transferrin iron complex (transferrin iron complex in which transferrin is chelated to iron ions) by the iron chelating agent according to Examples 1 to 2.
The iron chelating agent according to Example 1 was dissolved in 1×D-PBS (pH 7.2) to prepare an iron chelating agent solution (“Fe-Ser•Na (5 mM)”) having an iron chelating agent concentration of 5 mM, in the same manner as the preparation method of the iron chelating agent in evaluation A of the iron chelating agent.
Further, as described above, the iron chelating agent according to Example 2 was dissolved in 1×D-PBS (pH 7.2) to prepare an iron chelating agent solution (“Fe-His•Na (5 mM)”) having an iron chelating agent concentration of 5 mM.
Further, 800 mM HEDTA solution as the iron chelating agent according to Comparative Example 3 was prepared as described above. 13.76 g of crystals were taken in a 50 mL conical tube, 25 mL of Milli-Q water was added and dissolution performed, and then adjustment to pH 7.0 was performed using concentrated hydrochloric acid (35 to 37%) and the total amount was adjusted to 50 mL using Milli-Q water (HEDTA solution (800 mM)). HEDTA solution (“HEDTA solution (5 mM)”) having a concentration of HEDTA of 5 mM was prepared using 1×D-PBS (pH 7.2).
Further, 800 mM solution (pH 7.0) was prepared by using NTA2Na and NTA3Na as iron chelating agents according to Comparative Example 1 as described above. 9.4 g of NTA2Na was dissolved in Milli-Q water and the total volume was made up to 50 mL (referred to as “NTA2Na solution (800 mM)” in some cases). Meanwhile, 11.0 g of NTA3Na was dissolved in Milli-Q water and the total volume was made up to 50 mL (“NTA3Na solution (800 mM)”). NTA2Na solution (800 mM) (pH 6.3) and NTA3Na solution (800 mM) (pH 11.3) were mixed to produce 800 mM of NTA solution with pH 7.0. NTA solution (“NTA solution (5 mM)”) having a concentration of NTA of 5 mM was prepared by using 1×D-PBS (pH 7.2).
A commercially available transferrin iron complex (holo-Transferrin (hTf), human, Code T0665-50MG, Lot 095K1633, manufactured by Sigma Corporation) was dissolved in 1×D-PBS (pH 7.2) to prepare a transferrin iron complex solution having a concentration of iron ions (iron ions which are transferrin-bound iron) of 50 μM.
50 μl of 50 μM transferrin iron complex solution was taken in a 1.5 mL sample tube, 50 μl of each of iron chelating agent solutions (Fe-Ser•Na (5 mM), Fe-His•Na (5 mM), NTA solution (5 mM), HEDTA solution (5 mM)) was added thereto and left at room temperature under light shielding for 24 hours. 50 μl of various reaction liquids was taken in a centrifugal ultrafiltration unit (trade name “Amicon Ultra-4 Ultracel-30k” UFC8030, manufactured by Millipore Corporation), and 450 μl of 1×D-PBS (pH 7.2) was added thereto, centrifugation was carried out at 3,500 rpm and 20° C. for 30 minutes, and transferrin and each low molecular chelating agents were separated (first time). After centrifugation, the filtrate was discarded. 450 μl of 1×D-PBS (pH 7.2) was added again to the solution (about 50 μl) containing transferrin concentrated in a unit and centrifugation was carried out with the same conditions (second time). A solution containing transferrin concentrated in a unit was recovered after the second time of centrifugation and the absorbance at the wavelength of 466 nm was measured using a spectrophotometer (trade name “Spectrophotometer DU 640”, manufactured by Beckman Coulter).

[2] = test system: iron citrate complex ammonium salt (FAC); experiment: Evaluation C: chelating ability in MOPS/acetonitrile solvent, FAC solution
Experimental: (§1) Evaluation was carried out by the following evaluation method C as to whether or not the iron chelating agent according to Examples 1 to 3 had chelating ability with iron in 3-morpholinopropanesulfonic acid (C7H15NO4S;MOPS) and acetonitrile solution as solvents used in high performance liquid chromatography (HPLC).
(§2) 2.09 g of morpholinopropanesulfonic acid (C7H15NO4S; FW=209.26, Code 341-01801, Lot PX013, manufactured by Dojindo/Wako Corporation) was added to a 100 mL Erlenmeyer flask, 80 mL of ultrapure water (pure water produced by an ultrapure water production system manufactured by Millipore Corporation (Milli-Q); “Milli-Q water”) was added thereto and dissolved [pH 4.15 (24.4° C.)]. To this solution, 1N sodium hydroxide solution (1 mol/1 sodium hydroxide solution, Code 192-02175, Lot SEP7274, manufactured by Wako Pure Chemicals Industries) was added in 100 μl portions, the pH was adjusted to 7.0 and further Milli-Q water was made up to 100 mL in a measuring cylinder, whereby 100 mL of MOPS solution (pH 6.99) was prepared.
(§3) An iron chelating agent solution having an iron chelating agent concentration of 50 mM was prepared with respect to the iron chelating agent according to Examples 1 to 3, in the same manner as the preparation method of the iron chelating solution in evaluation A of the iron chelating agent.
(§4) Further, 100 mM of MOPS solution (pH6.99) prepared by the preparation method of the MOPS solution was used.
(§5) Furthermore, a stock solution of acetonitrile (C2H3N, FW=41.05, Code 347-06641, Lot WPI96, manufactured by Dojindo/Wako corporation) was used.
(§6) 13.8 mL of Milli-Q water was taken in a 50 mL conical tube, 1.2 mL of each of the iron chelating agent solutions (Fe-Ser•Na (50 mM), Fe-His•Na (50 mM), Fe-Glu•Na (50 mM)) according to the iron chelating agents of Examples 1 to 3 was added, 1.0 mL of 100 mM MOPS solution was added thereto, and a further 4.0 mL of acetonitrile solution was added to produce an iron chelating solution using MOPS. The iron chelating agent solutions using MOPS and iron chelating agent according to Examples 1 to 3 were defined respectively as Fe-Ser•Na (MOPS solution)” (iron chelating agent according to
(§7) Example 1), “Fe-His•Na (MOPS solution)” (iron chelating agent according to Example 2), and “Fe-Glu•Na(MOPS solution)” (iron chelating agent according to Example 3).
An iron citrate complex ammonium salt solution (FAC solution (20 mM)) having a concentration of iron ions of 20 mM and an iron citrate complex ammonium salt solution (FAC solution (2 mM)) having a concentration of iron ions of 2 mM were prepared, in the same manner as the preparation method of the iron citrate complex ammonium solution in evaluation A of the iron chelating agent.
FAC solution (20 mM) was added to and mixed with each of the iron chelating agent solutions [Fe-Ser•Na (MOPS solution), Fe-His•Na (MOPS solution), Fe-Glu•Na (MOPS solution)] using MOPS.

[3] = test system: iron nitrilotriacetate complex (Fe-NTA); experiment: Evaluation C: chelating ability in MOPS/acetonitrile solvent, Fe-NTA solution
Experimental: as §1, §2, §3, §4, §5, §6, §7
Further, iron nitrilotriacetate complex solution (“Fe-NTA solution (20 mM)”) having a concentration of iron ions of 20 mM and iron nitrilotriacetate complex solution (“Fe-NTA solution (2 mM)”) having a concentration of iron ions of 2 mM were prepared, in the same manner as the preparation method of iron nitrilotriacetate complex solution in evaluation B of the iron chelating agent.
Further, Fe-NTA solution (20 mM) was added to and mixed with each of the iron chelating agent solutions [Fe-Ser•Na (MOPS solution), Fe-His•Na (MOPS solution), Fe-Glu•Na (MOPS solution)] using MOPS. […] Further, Fe-NTA solution (2 mM) was added and mixed thereto as described above.

[4] = FAC solution (2 mM) added to chelating agent MOPS solution (MOPS, acetonitrile)
[5] = FAC solution (20 mM) added to chelating agent MOPS solution (MOPS, acetonitrile)
[6] = Fe-NTA solution (2 mM) added to chelating agent MOPS solution (MOPS, acetonitrile)
[7] = Fe-NTA solution (20 mM) added to chelating agent MOPS solution (MOPS, acetonitrile)

T1 sequence (P02787 20-698, one chain of several): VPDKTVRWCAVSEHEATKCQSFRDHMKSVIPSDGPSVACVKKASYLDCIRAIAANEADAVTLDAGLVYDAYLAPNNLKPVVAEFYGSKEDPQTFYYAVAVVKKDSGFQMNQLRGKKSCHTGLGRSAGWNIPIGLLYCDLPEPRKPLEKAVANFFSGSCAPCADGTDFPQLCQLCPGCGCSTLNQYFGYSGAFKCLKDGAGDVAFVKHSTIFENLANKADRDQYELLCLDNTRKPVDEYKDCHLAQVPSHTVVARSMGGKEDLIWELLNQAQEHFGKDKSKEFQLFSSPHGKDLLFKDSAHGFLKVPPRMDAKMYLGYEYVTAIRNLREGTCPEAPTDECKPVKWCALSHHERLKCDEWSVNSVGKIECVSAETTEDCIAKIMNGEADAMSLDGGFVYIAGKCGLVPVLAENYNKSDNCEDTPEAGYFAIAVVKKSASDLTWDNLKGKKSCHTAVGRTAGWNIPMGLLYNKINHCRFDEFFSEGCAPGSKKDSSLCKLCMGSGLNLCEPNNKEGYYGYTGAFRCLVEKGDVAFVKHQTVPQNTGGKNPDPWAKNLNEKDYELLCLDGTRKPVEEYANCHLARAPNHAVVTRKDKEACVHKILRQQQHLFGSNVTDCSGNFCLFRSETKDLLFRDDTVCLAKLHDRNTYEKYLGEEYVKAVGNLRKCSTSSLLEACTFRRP

## O=C(O)CN(CC(=O)O)CC(=O)O [Comparative Example 1, nitrilotriacetic acid, reference compound]
[1]
  hTf residual ratio (%): 79.59%
  Absorbance (466 nm): 0.0589

## N-(2-hydroxyethyl)-ethylenediamine triacetic acid [Comparative Example 3, reference compound]
[1]
  hTf residual ratio (%): 69.59%
  Absorbance (466 nm): 0.0515

## O=C(O)C(Cc1c[nH]cn1)NCc1ccccc1O (centres unmarked) [Example 2, o-[(1-carboxy-2-(1H-imidazol-4-yl)ethyl)-amino-methyl]-phenol]
[2]; [4]
  colour of the solution after mixing: dark brown-colored
[2]; [5]
  colour of the solution after mixing: dark brown-colored
[3]; [6]
  colour of the solution after mixing: dark brown-colored
[3]; [7]
  colour of the solution after mixing: dark brown-colored
[1]
  hTf residual ratio (%): 83.78%
  Absorbance (466 nm): 0.0620

## NC(=O)CCC(NCc1ccccc1O)C(=O)O (centres unmarked) [Example 3, o-[(1-carboxy-2-carbamoylmethylethyl)-amino-methyl]-phenol]
[2]; [4]
  colour of the solution after mixing: dark brown-colored
[2]; [5]
  colour of the solution after mixing: dark brown-colored
[3]; [6]
  colour of the solution after mixing: dark brown-colored
[3]; [7]
  colour of the solution after mixing: dark brown-colored

— patent publication US8623661B2, “Iron chelating agent, method for producing same, method for determining amount of iron ions and method for trapping iron ions” (National University Corporation Asahikawa Medical College, priority 2008, dated 2014)
